Converted amounts (≈) assume the structure as drawn. Marks after values point to notes of the source that are not given here.
Legend:
[1] = system: HL-60 (human promyelocytic leukemia cell); test: MTT cytotoxicity, HL-60; format: cell-based; conditions: 96 h, 4 days
From the text: (§1) Reagents: RPMI1640 is from GIBCO; MTT is from Bebco. Fetal bovine serum is purchased from Hangzhou SiJiQing Bioengineering Material Co. Ltd. (P. R. China).
(§2) Cell lines: COLO 205 (human colon cancer cell), NCI-H460 (human lung cancer cell), RPMI 8226 (human multiple myeloma cell), U251 (human brain glioma cell) are from ATCC, USA. HL-60 (human promyelocytic leukemia cell), MDA-MB-231, MDA-MB-435 (human breast cancer cell), SCLC (human small-cell lung cancer cell), H125 (human lung cancer cell) and PC-3 (human […] cancer cell).
(§3) The well-grown tumor cells were collected to prepare a cell suspension (1×10^4/ml) with RPMI 1640 medium containing 10% fetal bovine serum. The cell suspension was inoculated into a 96-well plate, 100 μL (containing 1000 tumor cells) per well. The plate was cultured in a 5% CO2 incubator at 37° C. for 24 hours, followed by addition of medicament.
(§4) A blank control and a positive control using 5-fluorouracil or adriamycin are employed in the experiment. […]
(§5) The supernatant was discarded. […] After gently shaking, the OD values were measured by a BIORAD 550 enzyme analyzer, with the detection wavelength being 540 nm and the reference wavelength being 450 nm.
(§6) Dose-response curves were generated by plotting with the cell inhibition rates and different concentrations of medicament, and the half inhibitory concentrations (IC50) were calculated.

human brain glioma U251 = system: human brain glioma U251
From the text: (§7) In this example, the animals used were BALB/c-nu nude mice, 6-8 weeks old. For each experiment, all animals were of the same sex.
(§8) Tumor cell lines: human brain glioma U251, human lung cancer cell line NCI-H460, human colon cancer cell line COLO205 were inoculated from in vitro culture into nude mice subcutaneously, the tumors were subcultured and kept.
(§9) Experimental Procedures: well-grown nude mice carrying well-grown tumors were selected and sacrificed by disjointing neck vertebra. The tumors were removed aseptically and were cut into pieces having a diameter of 2-3 mm by a scalpel. The pieces were inoculated into the axilla of nude mice subcutaneously by a needle. […] The length and width of tumors were measured by a vernier caliper. The animals were then grouped based their tumor sizes. Each group included seven to eight animals.
(§10) The length, width of the tumor and the body weight of the mice were measured twice per week. The tumor volume (TV) and relative tumor volume (RTV) were calculated. A graph indicating the changes of tumor size was plotted. At the end of this experiment, the tumors were taken out and weighed after the mice were sacrificed, and the inhibition rates of the medicament on tumor growth were calculated.
(§11) The formula for calculating tumor volume (TV) is: length×width^2÷2.
(§12) The formula for calculating relative tumor volume (RTV) is: Vt/Vo (wherein Vo is the TV value measured when the administration is started, Vt is the TV value measured after that).
(§13) T-test was used to determine the statistical difference of tumor weights, tumor volumes and RTV etc. between different groups of animal. The index used for evaluating the anti-tumor activity is the relative tumor growth rate T/C (%), the formula for which is: […]
(§14) The evaluation standard for efficacy:
(§15) T/C (%)>60 is ineffective;
(§16) T/C (%)≦60 and P<0.05 after statistical analysis is effective.
The Carmustine (Renmin Pharmaceuticals, Amino Acid Inc. Tianjin, P. R. China) was used as the positive control, 40 mg/kg, administered by intraperitoneal injection for once. CPT was given to four groups at the doses of 0.6 mg/kg, 1.7 mg/kg, 5.0 mg/kg, 15.0 mg/kg respectively, administered by intraperitoneal injection. The treatment included ten injections.

[2] = system: human lung cancer NCI-H460; test: Growth of human lung cancer NCI-H460 xenograft in nude mice; format: in vivo, BALB/c-nu nude mice; conditions: Cyclophosphamide 100 mg/kg i.p., then 80 mg/kg two weeks later
Procedure: The animals were then grouped based their tumor sizes. Each group included seven to eight animals.
as §14, §15
One additional injection was given at 80 mg/kg two weeks later. […] The treatment contained a total of ten injections.

[3] = system: U251 (human brain glioma cell); test: MTT cytotoxicity, U251; format: cell-based; conditions: U-251, 96 h, 4 days
From the text: as §1, §2, §3, §4, §5, §6

[4] = system: COLO 205 (human colon cancer cell); test: MTT cytotoxicity, COLO 205; format: cell-based; conditions: Homo sapiens, 96 h, 4 days, read-out: IC50
From the text: as §1, §2, §3, §4, §5, §6

[5] = system: MDA-MB-435 (human breast cancer cell); test: MTT cytotoxicity, MDA-MB-435; format: cell-based; conditions: Homo sapiens, 96 h, 4 days, read-out: IC50
From the text: as §1, §2, §3, §4, §5, §6

[6] = system: NCI-H460 (human lung cancer cell); test: MTT cytotoxicity, NCI-H460; format: cell-based; conditions: 96 h, 4 days
From the text: as §1, §2, §3, §4, §5, §6

[7] = system: MDA-MB-231 (human breast cancer cell); test: MTT cytotoxicity, MDA-MB-231; format: cell-based; conditions: 96 h, 4 days
From the text: as §1, §2, §3, §4, §5, §6

PC-3 (human cancer cell) = test: MTT cytotoxicity, PC-3; format: cell-based; conditions: Homo sapiens, 96 h, 4 days
From the text: as §1, §2, §3, §4, §5, §6

[8] = system: H125 (human lung cancer cell); test: MTT cytotoxicity, H125; format: cell-based; conditions: Homo sapiens, NCI-H125, 96 h, 4 days, read-out: IC50
From the text: as §1, §2, §3, §4, §5, §6

[9] = system: RPMI 8226 (human multiple myeloma cell); test: MTT cytotoxicity, RPMI 8226; format: cell-based; conditions: Homo sapiens, 96 h, 4 days, read-out: IC50
From the text: as §1, §2, §3, §4, §5, §6

[10] = system: SCLC (human small-cell lung cancer cell); test: MTT cytotoxicity, SCLC; format: cell-based; conditions: Homo sapiens, 96 h, 4 days, read-out: IC50
From the text: as §1, §2, §3
A blank control and a positive control using 5-fluorouracil or adriamycin are employed in the experiment. The CPT samples have five concentrations, three parallel wells for each concentration. The cells were cultured in an incubator with 5% CO2 at 37° C. for 4 days. Then the culture medium was removed and 100 μL MTT solution (0.4 mg/ml in RPMI 1640) was added to each well. The plate was incubated at 37° C. for four additional hours.
The supernatant was discarded. 150 μl DMSO was added into each well in order to solubilize Fomazan granulates. After gently shaking, the OD values were measured by a BIORAD 550 enzyme analyzer, with the detection wavelength being 540 nm and the reference wavelength being 450 nm.
as §6

[11] = system: human colon cancer COLO 205; conditions: COLO 205 xenograft, hydroxycamptothecin 1 mg/kg i.p. once per day 15 days, then further courses
From the text: as §7, §8, §9, §10, §11, §12, §13, §14, §15, §16
Injectable hydroxycamptothecin (trade name: Xi Su, Wuhan Lishizhen Pharmaceuticals Inc., Huangshi Lishizhen Pharmaceuticals Group, P. R. China) was used as positive control, administered by intraperitoneal injection at the dose of 1 mg/kg, once per day. The administration was terminated after 15 consecutive days of administration. […] A single administration of 80 mg/kg hydroxycamptothecin was further given after two weeks. CPT was given to three treatment groups at the doses of 1.7 mg/kg, 5.0 mg/kg, 15.0 mg/kg respectively by intraperitoneal injection, once per day. The treatment contained a total of 15 injections.

[12] = U251 xenograft, Carmustine 40 mg/kg i.p. once

COc1cccc2c1C(=O)c1c(O)c3c(c(O)c1C2=O)C[C@@](O)(C(=O)CO)C[C@@H]3O[C@H]1C[C@H](N)[C@H](O)[C@H](C)O1 [Adr, Adriamycin]
IC50 [1]: 6 ng/mL (≈ 0.011 µM)

O=NN(CCCl)C(=O)NCCCl [Carmustine, reference compound]
RTV (human brain glioma U251; [12]): 0.54 ± 0.29
T/C (%) (human brain glioma U251; [12]): 16.0%
Tumor volume (mm^3) End (human brain glioma U251; [12]): 109 ± 78** mm^3
Tumor weight (human brain glioma U251; [12]): 0.09 ± 0.06 g
Tumor volume (mm^3) Start (human brain glioma U251; U251 xenograft, Carmustine 40 mg/kg i.p. once, baseline): 153 ± 35 mm^3
Inhibition rate (%) (human brain glioma U251; U251 xenograft, Carmustine 40 mg/kg i.p. once, by tumor weight): 93.0%
Body Weight (g) End (human brain glioma U251; mouse, in vivo): 19.4 ± 2.1 g
Body Weight (g) Start (human brain glioma U251; mouse, in vivo): 22.8 ± 0.7 g

O=P1(N(CCCl)CCCl)NCCCO1 (stereo not shown) [Cyclophosphamide, reference compound]
Body Weight (g) End [2]: 16.1 ± 2.2 g
RTV [2]: 3.67 ± 2.15
T/C (%) [2]: 61.4%
Tumor volume (mm^3) End [2]: 1121 ± 434 mm^3
Tumor weight [2]: 0.96 ± 0.35 g
Body Weight (g) Start ([2]; baseline): 20.0 ± 1.3 g
Tumor volume (mm^3) Start ([2]; baseline): 179 ± 52 mm^3
Inhibition rate (%) ([2]; by tumor weight): 40.4%

O=c1[nH]cc(F)c(=O)[nH]1 [Fu, 5-fluorouracil, reference compound]
IC50 [3]: 0.981 ± 0.077 µg/mL (≈ 7.54 µM)
IC50 [4]: 0.826 ± 0.051 µg/mL (≈ 6.35 µM)
IC50 [5]: 0.199 ± 0.138 µg/mL (≈ 1.53 µM)
IC50 [6]: 0.566 ± 0.016 µg/mL (≈ 4.35 µM)
IC50 [7]: 0.318 ± 0.055 µg/mL (≈ 2.44 µM)
IC50 (PC-3 (human cancer cell)): 4.93 ± 0.753 µg/mL (≈ 37.9 µM)
IC50 [8]: 0.138 ± 0.031 µg/mL (≈ 1.06 µM)
IC50 [9]: < 0.1 µg/mL
IC50 [10]: 0.617 ± 0.0257 µg/mL (≈ 4.74 µM)

CC[C@@]1(O)C(=O)OCc2c1cc1n(c2=O)Cc2cc3cc(O)ccc3nc2-1 [Hydroxycamptothecin, hydroxycamptothecin, reference compound]
Body Weight (g) End [11]: 21.0 ± 2.5 g
RTV [11]: 3.92 ± 1.91
T/C (%) [11]: 47.2%
Tumor volume (mm^3) End [11]: 845 ± 66** mm^3
Tumor weight [11]: 0.66 ± 0.26 g
Body Weight (g) Start ([11]; baseline): 20.4 ± 0.9 g
Tumor volume (mm^3) Start ([11]; baseline): 150 ± 34 mm^3
Inhibition rate (%) ([11]; by tumor weight): 66.3%
